This is an account of results in US10414739B2, “Compounds as inhibitors of the YAP/TAZ-TEAD interaction and their use in the treatment of malignant mesothelioma” (INVENTIVA, priority 2015, dated 2019).

Series [1] deals with SW620 cell line. Briefly: Cell proliferation in YAP-independent cell line (EdU). The format is cell-based. As for the experimental part: The tumor cell growth inhibitory activity of the YAP-TEAD interaction inhibitors was evaluated in NCI-H2052 mesothelioma cell line harboring a NF2 mutation. This cell line was selected based on its mutational status and the ability of a siRNA directed against YAP, TAZ or TEAD1-4 to inhibit cell proliferation. The nuclear localization of YAP at confluence was also taken into account. Based on these observations we were able to classify several “YAP dependent cells” where YAP is clearly nuclear and in which a cell growth inhibition is observed by using siRNA (NCI-H2052, SKOV-3, ACHN, A549) and the “YAP independent cells” where YAP is preferentially located in the cytoplasm and in which no inhibition of cell growth is observed by using a siRNA (SW620, Met-5a). […] After one day growth in the starvation medium, cells were incubated with compounds. The starting concentration was 30 μM and serial dilutions in DMSO and medium were performed until […] to achieve a final DMSO concentration of 0.5%. The cells were then allowed to grow for 3 days, and then, EdU (Invitrogen, Molecular Probe) was added in each well at a final concentration of 10 μM and the cells were returned to the incubator for additional 24 h. Starvation medium was removed and 100 μl of PFA 4% containing Hoechst dye was adding in each well to fix the cells. Plates were then incubated at room temperature for 15 minutes, washed twice with PBS and the cells were permeabilized by adding 100 μl per well of triton-100 containing 0.3% BSA. After 20 minutes cells were washed with PBS and the EdU detection was performed according to the instructions of the manufacturer. Image acquisition was performed using the ImageXpress Micro and analysed using the MetaXpress software (Molecular Device). Results were expressed as a percent of inhibition (%) of the cell proliferation values obtained with 0.5% DMSO treatment alone. The cellular response was determined by fitting the concentration response curves using a 3 parameter curve fit equation and determining the concentration that inhibited cell growth between 50% and 100%.

The subject of series [2] is NCI-H2052 mesothelioma cell line. Briefly: Inhibition of malignant mesothelioma tumor cell growth (EdU proliferation). The format is cell-based. The note with it: NCI-H2052 (NF2 mutated), 1% serum. As to the method:
Inhibition of Malignant Mesothelioma Tumor Cell Growth
The tumor cell growth inhibitory activity of the YAP-TEAD interaction inhibitors was evaluated in NCI-H2052 mesothelioma cell line harboring a NF2 mutation. This cell line was selected based on its mutational status and the ability of a siRNA directed against YAP, TAZ or TEAD1-4 to inhibit cell proliferation. The nuclear localization of YAP at confluence was also taken into account. Based on these observations we were able to classify several “YAP dependent cells” where YAP is clearly nuclear and in which a cell growth inhibition is observed by using siRNA (NCI-H2052, SKOV-3, ACHN, A549) and the “YAP independent cells” where YAP is preferentially located in the cytoplasm and in which no inhibition of cell growth is observed by using a siRNA (SW620, Met-5a). […] After one day growth in the starvation medium, cells were incubated with compounds. The starting concentration was 30 μM and serial dilutions in DMSO and medium were performed until […] to achieve a final DMSO concentration of 0.5%. The cells were then allowed to grow for 3 days, and then, EdU (Invitrogen, Molecular Probe) was added in each well at a final concentration of 10 μM and the cells were returned to the incubator for additional 24 h. Starvation medium was removed and 100 μl of PFA 4% containing Hoechst dye was adding in each well to fix the cells. Plates were then incubated at room temperature for 15 minutes, washed twice with PBS and the cells were permeabilized by adding 100 μl per well of triton-100 containing 0.3% BSA. […] Image acquisition was performed using the ImageXpress Micro and analysed using the MetaXpress software (Molecular Device). Results were expressed as a percent of inhibition (%) of the cell proliferation values obtained with 0.5% DMSO treatment alone. The cellular response was determined by fitting the concentration response curves using a 3 parameter curve fit equation and determining the concentration that inhibited cell growth between 50% and 100%.

The subject of series [3] is YAP-TEAD interaction in co-transfected HEK293 cells. Nature of the series: Cell-based TEAD-GAL4 transactivation assay (luciferase reporter). The note with it: Homo sapiens, HEK293 co-transfected with TEAD1-Gal4, YAP mutant (S127A, S397A) and reporter, 24 h. As to the method: Effect of Compounds on the Cell-Based TEAD-GAL4 Transactivation Assay
(§1) To identify inhibitors of YAP-TEAD interaction, a transient transactivation assays was carried out into HEK293 cell line (HEK293 GripTite™ 293 MSR (Invitrogen R795-07)) using plasmids containing the full length TEAD1 sequences, the full length YAP mutant (S127A, S397A) and a luciferase gene reporter. All expression constructs were performed into pSG5 backbone plasmid in which the SV40 promoter was replaced by the CMV promoter. The TEAD1 construct was prepared by cloning the full length human TEAD1 cDNA in fusion with the Gal4 DNA Binding Domain (AA 1-148) into pSG5_CMV to create the TEAD1(FL)_hum_pSG5Gal4_CMV. The full length YAP mutant (S127A, S397A) was also cloned into pSG5_CMV to create the YAP(FL)_hum_pSG5_mutS127A_S397A_CMV. The reporter plasmid GAL4(5×RE)_TK(−105/+56)_pGL3-Basic contains 5 copies of the GAL4 responsive element (5′-TCGGAGGACAGTACTCC-3′) upstream of the thymidine kinase (TK) promoter (−105/+56) inserted in a pGL3-Basic vector. To evaluate the selectivity of our compounds in blocking the YAP-TEAD interaction, a counter-screening protein-protein interaction transactivation assays was also established. Briefly, two other expression plasmids, the pBD-P53 which express the P53 (AA 72-390) in fusion with Gal4 and the pAD-SV40T which express the SV40 large T antigen (AA 84-708,AgT), were created. […] Twenty-four hours later, the luciferase activity was determined after addition of 100 μl of Steady Glo™ luciferase assay system (Promega E2550) according to the manufacturer's directions. Luciferase activity in cell extracts is measured by reading luminescence using the Envision device.
The cellular response was determined by fitting the concentration response curves using a 3-parameter curve fit equation and determining the concentration that inhibited the luciferase activity by 50%.
In general terms: Reporter assays use an easily measured gene product as a stand-in for the process of interest.

Series [4] deals with T1, YAP-TEAD interaction (human YAP2-His6 (50-114) / human TEAD1-GST (209-426)) (Homo sapiens, UniProt P28347).
T1 construct: GST-TEAD1 (209-426) produced in E. coli; made in house; host or cells: E. coli
T1 sequence (P28347 209-426): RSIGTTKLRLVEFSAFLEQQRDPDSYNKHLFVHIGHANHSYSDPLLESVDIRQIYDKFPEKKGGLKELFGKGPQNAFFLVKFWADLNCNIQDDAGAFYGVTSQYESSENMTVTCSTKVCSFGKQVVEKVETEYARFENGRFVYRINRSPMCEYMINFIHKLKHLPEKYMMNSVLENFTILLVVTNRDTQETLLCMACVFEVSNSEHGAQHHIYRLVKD
Briefly: YAP-TEAD AlphaLISA assay. The format is binding. The following applies: for Emax: 2 h, maximal % inhibition, read-out: Max Act.; for Emax / IC50: YAP-TEAD AlphaLISA; for IC50: 2 h equilibration at room temperature. As to the method:
YAP-TEAD AlphaLISA Assay for IC50 Value Determination.
YAP-TEAD binding and inhibition was assessed by monitoring the engagement of YAP2 peptide (human YAP2-His6 (50-114) produced in E. coli) with TEAD (human TEAD1-GST (GST-TEAD1 (209-426) produced in E. coli) using the AlphaLisa technology (Perkin-Elmer). Specifically, in a 384 well (Axygen) 5 μl of compounds were dispensed in 100% DMSO following a semi log serial dilution, with a top concentration of […] (10 concentrations). A ‘3 partners solution’ was prepared by mixing AlphaScreen Glutathione Donor beads 15 μg/ml (PerkinElmer), Anti-6×His AlphaLisA Acceptor beads 15 μg/ml (PerkinElmer) and Human YAP2 9 nM in 100 mM NaCl, 25 mM Hepes, 0.1% BSA, 0.5% NoNidet®P40 buffer. In the 384 assay plate (Proxiplate, Perkin-Elmer)) 2 μl of compound at each concentration, 6 μl of buffer, 6 μl of hTEAD1-GST 9 nM and 6 μl of ‘3 partner solution’ were mixed. After 2 h equilibration at room temperature in the dark the plates were read on an Envision instrument (Excitation @ 680 nm/Emission @ 570 nm, Perkin Elmer).
Results were expressed as % inhibition=100×((HighControl−Cpd)/(HighControl−LowControl)), were High control is the maximum response obtained with all components and Low control is the basal response obtained with all components without GST-Tead1.
Cpd is the response obtained for test compounds.
IC50 (half maximal inhibitory concentration) was determined by fitting the concentration response curves using a 3-parameter curve fit equation and determining concentration corresponding to 50% inhibition.

In series [5] the test system is P53 / SV40 large T antigen (AgT) interaction in HEK293 cells. Briefly: Counter-screening protein-protein interaction transactivation assay (P53+AgT). The format is cell-based. The following applies: HEK293, same conditions as TEAD-GAL4 assay. As for the experimental part:
as §1, with “created. HEK293 cells were seeded at 5×10^4 cells/well in 96 well plates (assay plates) in DMEM medium containing 4.5 g/L D-glucose, 10% high inactivated (HI) fetal bovine serum 1% Glutamax, 1% non-essential amino acid and 1% sodium pyruvate and 0.5% penicillin/streptomycin 37° C. in a humidified atmosphere of 8% CO2.” for “created.”
Background: A counterscreen serves to expose hits that act by an unwanted route or on another target.

`COc1cc(/C=N/N(C)C2=NS(=O)(=O)c3ccccc32)ccc1O` [Example 1, 4-[(E)-[(1,1-dioxo-1,2-benzothiazol-3-yl)-methyl-hydrazono]methyl]-2-methoxy-phenol] came in with a melting point of 218 °C. In addition, in series [1], the “effect on cell proliferation” value is “without showing any effect”. Also, the “inhibition of cell proliferation” value in series [2] was “inhibited”. The same compound displayed an inhibition at 30 µM in series [3] of 50 to 75%. In series [4], the Emax was 92% and half-maximal inhibition (IC50) was put at 886 nM. The compound also came in with an inhibition at 0.886 µM in series [4] (at 0.886 μM (so in the source)) of 92%. For the same compound, in series [5], the “inhibitory effect in counter screening assay (P53+AgT)” value is recorded as “no inhibitory effect was observed”.
`COc1cc(/C=N/N(CCO)C2=NS(=O)(=O)c3ccccc32)ccc1O` [Example 2, 4-[(E)-[(1,1-dioxo-1,2-benzothiazol-3-yl)-(2-hydroxyethyl)-hydrazono]methyl]-2-methoxy-phenol]: the “effect on cell proliferation” value in series [1] is “without showing any effect”. For the same compound, the “inhibition of cell proliferation” value in series [2] is reported as “inhibited”. In series [3], this compound had an inhibition at 30 µM of 50 to 75%. In addition, in series [4], the Emax came to 93% and 949 nM corresponded to half-maximal inhibition (IC50). In addition, the “inhibitory effect in counter screening assay (P53+AgT)” value in series [5] is reported as “no inhibitory effect was observed”.

As a reminder, the melting point is the temperature, or range, at which the solid turns liquid. As usually defined, the inhibition is how much of the control response was suppressed. Higher therefore signals a response far below the control. A word on the IC50: it is the point on the concentration scale where inhibition reaches its midpoint.
